Data published in US20250179045A1, “LPAR1 ANTAGONISTS AND USES THEREOF” (Contineum Therapeutics, Inc., priority 2021, published 2025).

Biological target: human LPA1 (Homo sapiens, UniProt Q92633)
Experiment: In vitro functional assay of lysophosphatidic acid receptor 1 activity (calcium flux)
Type: cell-based
Conditions: B103 cells stably expressing human LPA1; Fluo-4 NW calcium flux after lysophosphatidic acid (18:1) at EC80; compounds 100 pM to 10 μM; read-out: LPA1 IC50
How it was run: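 B103 cells stably expressing human LPA1 plated onto compound for 24 h at 37 °C, loaded with Fluo-4 NW dye, re-exposed to compound (30 min 37 °C plus 30 min room temp).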

Chain of human LPA1 (Q92633 whole entry): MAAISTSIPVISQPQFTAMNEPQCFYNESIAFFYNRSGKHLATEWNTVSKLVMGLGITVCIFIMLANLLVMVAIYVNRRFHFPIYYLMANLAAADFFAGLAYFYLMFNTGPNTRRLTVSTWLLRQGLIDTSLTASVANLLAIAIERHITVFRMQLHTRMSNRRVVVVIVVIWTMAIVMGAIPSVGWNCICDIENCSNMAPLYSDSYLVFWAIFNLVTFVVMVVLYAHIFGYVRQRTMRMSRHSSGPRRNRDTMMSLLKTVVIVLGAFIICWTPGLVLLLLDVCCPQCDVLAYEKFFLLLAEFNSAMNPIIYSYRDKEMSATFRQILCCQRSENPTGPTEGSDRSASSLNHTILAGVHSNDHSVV

SMILES | IC50 [nM]
Cc1ccc(NC(=O)C2(c3ccccc3C(C)C)CC(O)(c3ccc(C#N)cn3)C2)c(OC(F)F)n1 (centres unmarked) [Example 50, 3-(5-cyanopyridin-2-yl)-N-(2-(difluoromethoxy)-6-methylpyridin-3-yl)-3-hydroxy-1-(2-isopropylphenyl)cyclobutane-1-carboxamide] | 10 to 100
Cc1ccc(NC(=O)C2(c3ccccc3C(C)C)CC(CC#N)C2)c(OC(F)F)n1 (mixture of isomers) [Example 63, 3-(cyanomethyl)-N-(2-(difluoromethoxy)-6-methylpyridin-3-yl)-1-(2-isopropylphenyl)cyclobutane-1-carboxamide] | 100 to 1000
